The values below come from patent US20070021419A1, “2-Aminophenyl-4-phenylpyrimidines as kinase inhibitors” (Cyclacel Limited, priority 2003, published 2007).

For one experiment, the target named is CDK1/cyclin B (Homo sapiens, UniProt P06493). Put plainly: Kinase assay, radioactive phosphate incorporation, CDK1/cyclin B. It is filed as biochemical. Conditions: 100 μM ATP, 30° C.; read-out: Kinase inhibition IC50 CDK1/cyclin B. The method in brief: (§1)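 Inhibition is measured as reduced transfer of radioactive phosphate to a polypeptide substrate by 2-4 μg of recombinant enzyme. Mixtures with Mg/ATP (100 μM ATP, 15 mM MgCl2, [γ-32P]-ATP) in pH 7.4 MOPS-based buffer incubate at 30° C, are stopped on ice, filtered and counted.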

The next experiment has as its target T1, Aurora-A (Homo sapiens, UniProt O14965).
T1 sequence (O14965 1-403): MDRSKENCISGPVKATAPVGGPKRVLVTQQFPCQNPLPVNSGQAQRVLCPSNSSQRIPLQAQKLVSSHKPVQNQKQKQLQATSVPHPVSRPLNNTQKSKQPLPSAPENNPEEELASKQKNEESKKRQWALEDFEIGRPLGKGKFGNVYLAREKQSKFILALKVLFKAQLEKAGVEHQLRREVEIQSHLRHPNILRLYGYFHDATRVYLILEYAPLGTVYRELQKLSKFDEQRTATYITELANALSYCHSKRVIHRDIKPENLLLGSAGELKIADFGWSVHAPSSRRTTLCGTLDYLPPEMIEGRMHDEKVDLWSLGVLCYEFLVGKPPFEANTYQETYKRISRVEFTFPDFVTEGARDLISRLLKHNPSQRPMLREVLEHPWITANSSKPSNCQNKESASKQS
Put plainly: Kinase assay, radioactive phosphate incorporation, Aurora-A. It is filed as biochemical. Particulars: 100 μM ATP, 30° C.; read-out: Kinase inhibition IC50 Aurora-A. The procedure: The compounds from the examples above were investigated for their ability to inhibit the enzymatic activity of various protein kinases. This was achieved by measurement of incorporation of radioactive phosphate from ATP into appropriate polypeptide substrates. Recombinant protein kinases and kinase complexes were produced or obtained commercially. Assays were performed using 96-well plates and appropriate assay buffers (typically 25 mM β-glycerophosphate, 20 mM MOPS, 5 MM EGTA, 1 mM DTT, 1 mM Na3VO3, pH 7.4), into which were added 2-4 μg of active enzyme with appropriate substrates. The reactions were initiated by addition of Mg/ATP mix (15 mM MgCl2+100 μM ATP with 30-50 kBq per well of [γ-^32P]-ATP) and mixtures incubated as required at 30° C. Reactions were stopped on ice, followed by filtration through p81 filterplates or GF/C filterplates (Whatman Polyfiltronics, Kent, UK). After washing 3 times with 75 mM aq orthophosphoric acid, plates were dried, scintillant added and incorporated radioactivity measured in a scintillation counter (TopCount, Packard Instruments, Pangbourne, Berks, UK). Compounds for kinase assay were made up as 10 mM stocks in DMSO and diluted into 10% DMSO in assay buffer.

The target in the next experiment is CDK4/cyclin D1 (Homo sapiens, UniProt P11802). The experiment is described as follows: Kinase assay, radioactive phosphate incorporation, CDK4/cyclin D1. It counts as biochemical. Conditions: 100 μM ATP, 30° C.; read-out: Kinase inhibition IC50 CDK4/cyclin D1. The method in brief:
as §1

The next experiment deals with Saos-2. Put plainly: 72-h MTT cytotoxicity assay, Saos-2. It counts as cell-based. Particulars: Homo sapiens, read-out: 72-h MTT IC50 Saos-2, Saos-2 cell line. The method in brief: (§2)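 Cells were seeded according to doubling time, left overnight at 37° C, then exposed in triplicate to a 1/3 DMSO-derived dilution series for 72 h at 37° C. MTT (5 mg/mL stock) was added for 4 h in the dark, and the dye was solubilised in DMSO.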
Background: Tetrazolium dyes change colour on reduction, which living cells bring about.

In the next experiment the target is CDK2/cyclin E (Homo sapiens, UniProt P24941). Put plainly: Kinase assay, radioactive phosphate incorporation, CDK2/cyclin E. Particulars: 100 μM ATP, 30° C.; read-out: Kinase inhibition IC50 CDK2/cyclin E. It is filed as biochemical. In short, it runs like this: as §1
In the next experiment the target is GSK3β (Homo sapiens, UniProt P49841). Put plainly: Kinase assay, radioactive phosphate incorporation, GSK3β. Particulars: 100 μM ATP, 30° C.; read-out: Kinase inhibition IC50 GSK3β. It counts as biochemical. The method in brief: as §1
A further experiment addresses CDK9/cyclin T1 (Homo sapiens, UniProt P50750). The experiment is described as follows: Kinase assay, radioactive phosphate incorporation, CDK9/cyclin T1. It is filed as biochemical. Particulars: 100 μM ATP, 30° C.; read-out: Kinase inhibition IC50 CDK9/cyclin T1. In short, it runs like this:
as §1

Another experiment concerns HT29. Put plainly: 72-h MTT cytotoxicity assay, HT29. Conditions: Homo sapiens, HT-29, read-out: 72-h MTT IC50 HT29, HT29 cell line. It counts as cell-based. In short, it runs like this: as §2
The subject of experiment [1] is transformed human cell lines (A549, HT29, Saos-2). Put plainly: 72-h MTT cytotoxicity assay, average of cell lines. It counts as cell-based. Particulars: read-out: 72-h MTT IC50 Average, average of A549, HT29, Saos-2. In short, it runs like this: as §2
The next experiment has as its target CDK7/cyclin H (Homo sapiens, UniProt P50613). The experiment is described as follows: Kinase assay, radioactive phosphate incorporation, CDK7/cyclin H. It counts as biochemical. Particulars: 100 μM ATP, 30° C.; read-out: Kinase inhibition IC50 CDK7/cyclin H. In short, it runs like this:
as §1

For the next experiment, the system named is A549. Put plainly: 72-h MTT cytotoxicity assay, A549. It counts as cell-based. Conditions: Homo sapiens, read-out: 72-h MTT IC50 A549, A549 cell line. In short, it runs like this:
as §2

Another experiment addresses CDK2/cyclin A (Homo sapiens, UniProt P24941). The experiment is described as follows: Kinase assay, radioactive phosphate incorporation, CDK2/cyclin A. It counts as biochemical. Conditions: 100 μM ATP, 30° C.; read-out: Kinase inhibition IC50 CDK2/cyclin A. In short, it runs like this:
as §1

Sequence of CDK1/cyclin B (P06493 whole entry, species assumed): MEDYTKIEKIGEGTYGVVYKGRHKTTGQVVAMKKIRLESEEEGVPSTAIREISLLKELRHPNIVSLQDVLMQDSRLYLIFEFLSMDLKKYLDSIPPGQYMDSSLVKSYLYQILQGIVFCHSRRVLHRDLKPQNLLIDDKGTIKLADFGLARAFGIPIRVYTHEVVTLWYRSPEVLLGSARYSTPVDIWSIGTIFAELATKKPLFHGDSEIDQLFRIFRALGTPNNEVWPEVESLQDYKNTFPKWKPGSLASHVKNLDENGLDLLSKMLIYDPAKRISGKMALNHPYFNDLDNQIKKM
Sequence of CDK1/cyclin B (P14635 whole entry partner, species assumed): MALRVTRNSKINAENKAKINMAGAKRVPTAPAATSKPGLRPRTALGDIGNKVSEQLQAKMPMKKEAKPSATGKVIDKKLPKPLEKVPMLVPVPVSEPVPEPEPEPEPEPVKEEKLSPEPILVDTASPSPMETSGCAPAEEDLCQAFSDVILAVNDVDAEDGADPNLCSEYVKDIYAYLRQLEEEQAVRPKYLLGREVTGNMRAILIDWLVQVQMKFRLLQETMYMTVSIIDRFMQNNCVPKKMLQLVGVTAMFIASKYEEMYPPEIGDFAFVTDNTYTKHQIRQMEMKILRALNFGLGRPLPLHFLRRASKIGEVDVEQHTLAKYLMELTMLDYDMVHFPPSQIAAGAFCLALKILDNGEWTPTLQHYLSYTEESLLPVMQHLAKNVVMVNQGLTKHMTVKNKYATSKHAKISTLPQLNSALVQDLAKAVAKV
Sequence of CDK7/cyclin H (P50613 whole entry, species assumed): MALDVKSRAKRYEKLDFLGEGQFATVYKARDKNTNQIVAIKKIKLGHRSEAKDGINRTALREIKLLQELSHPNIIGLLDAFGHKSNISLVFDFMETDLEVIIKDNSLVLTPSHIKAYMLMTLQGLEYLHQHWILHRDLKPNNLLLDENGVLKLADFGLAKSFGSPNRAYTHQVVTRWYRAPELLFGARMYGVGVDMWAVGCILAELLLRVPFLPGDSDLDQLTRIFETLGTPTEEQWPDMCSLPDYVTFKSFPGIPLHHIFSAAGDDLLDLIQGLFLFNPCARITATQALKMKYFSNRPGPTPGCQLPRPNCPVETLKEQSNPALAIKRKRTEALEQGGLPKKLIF
Sequence of CDK7/cyclin H (P51946 whole entry partner, species assumed): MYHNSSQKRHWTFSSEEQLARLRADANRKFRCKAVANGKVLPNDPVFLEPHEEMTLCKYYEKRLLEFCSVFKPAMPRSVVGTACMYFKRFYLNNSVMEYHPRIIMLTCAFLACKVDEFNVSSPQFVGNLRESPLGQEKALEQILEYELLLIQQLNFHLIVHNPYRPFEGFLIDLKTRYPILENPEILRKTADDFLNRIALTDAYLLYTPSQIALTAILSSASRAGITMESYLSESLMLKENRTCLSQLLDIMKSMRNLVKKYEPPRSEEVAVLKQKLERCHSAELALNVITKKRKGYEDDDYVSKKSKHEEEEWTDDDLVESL
Sequence of CDK9/cyclin T1 (P50750 whole entry, species assumed): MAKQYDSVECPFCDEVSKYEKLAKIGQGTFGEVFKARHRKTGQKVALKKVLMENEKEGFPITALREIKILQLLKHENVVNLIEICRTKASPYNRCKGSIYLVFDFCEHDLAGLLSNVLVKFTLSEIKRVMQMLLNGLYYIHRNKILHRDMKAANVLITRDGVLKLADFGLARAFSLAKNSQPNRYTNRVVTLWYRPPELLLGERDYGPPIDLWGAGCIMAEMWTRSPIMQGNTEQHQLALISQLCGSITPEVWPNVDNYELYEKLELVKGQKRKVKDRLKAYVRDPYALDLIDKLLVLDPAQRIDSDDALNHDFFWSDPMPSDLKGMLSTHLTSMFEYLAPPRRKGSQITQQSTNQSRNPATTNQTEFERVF
Sequence of CDK9/cyclin T1 (O60563 whole entry partner, species assumed): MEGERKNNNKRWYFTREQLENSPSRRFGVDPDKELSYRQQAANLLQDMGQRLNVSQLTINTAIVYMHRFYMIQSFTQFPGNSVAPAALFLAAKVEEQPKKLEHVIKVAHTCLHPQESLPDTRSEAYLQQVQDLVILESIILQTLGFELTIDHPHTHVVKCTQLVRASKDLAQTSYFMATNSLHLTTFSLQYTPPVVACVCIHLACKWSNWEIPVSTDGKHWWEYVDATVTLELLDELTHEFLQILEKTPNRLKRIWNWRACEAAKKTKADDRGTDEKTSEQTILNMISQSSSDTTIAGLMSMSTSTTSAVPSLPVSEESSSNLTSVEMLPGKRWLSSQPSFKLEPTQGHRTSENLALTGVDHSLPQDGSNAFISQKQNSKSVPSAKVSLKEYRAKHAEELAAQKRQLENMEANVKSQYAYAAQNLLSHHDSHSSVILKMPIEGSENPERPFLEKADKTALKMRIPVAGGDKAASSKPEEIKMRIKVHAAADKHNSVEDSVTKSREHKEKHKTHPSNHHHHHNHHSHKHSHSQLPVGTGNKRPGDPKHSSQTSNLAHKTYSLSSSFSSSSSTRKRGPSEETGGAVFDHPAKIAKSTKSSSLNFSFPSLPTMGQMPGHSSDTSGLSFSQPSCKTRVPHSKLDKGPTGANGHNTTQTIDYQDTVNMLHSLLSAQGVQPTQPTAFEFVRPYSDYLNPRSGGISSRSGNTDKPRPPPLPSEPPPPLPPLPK
Sequence of GSK3β (P49841 whole entry, species assumed): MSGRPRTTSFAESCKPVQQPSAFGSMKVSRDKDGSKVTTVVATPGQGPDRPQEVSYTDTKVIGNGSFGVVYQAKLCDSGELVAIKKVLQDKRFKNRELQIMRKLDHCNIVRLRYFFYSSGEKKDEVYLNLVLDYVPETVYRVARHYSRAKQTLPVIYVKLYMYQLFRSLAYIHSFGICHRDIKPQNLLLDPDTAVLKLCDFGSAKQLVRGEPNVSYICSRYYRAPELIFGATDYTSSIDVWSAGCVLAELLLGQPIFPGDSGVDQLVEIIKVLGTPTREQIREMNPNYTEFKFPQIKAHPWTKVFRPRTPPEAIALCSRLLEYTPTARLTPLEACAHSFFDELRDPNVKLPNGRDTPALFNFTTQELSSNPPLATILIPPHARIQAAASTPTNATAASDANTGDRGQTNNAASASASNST
Sequence of CDK4/cyclin D1 (P11802 whole entry, species assumed): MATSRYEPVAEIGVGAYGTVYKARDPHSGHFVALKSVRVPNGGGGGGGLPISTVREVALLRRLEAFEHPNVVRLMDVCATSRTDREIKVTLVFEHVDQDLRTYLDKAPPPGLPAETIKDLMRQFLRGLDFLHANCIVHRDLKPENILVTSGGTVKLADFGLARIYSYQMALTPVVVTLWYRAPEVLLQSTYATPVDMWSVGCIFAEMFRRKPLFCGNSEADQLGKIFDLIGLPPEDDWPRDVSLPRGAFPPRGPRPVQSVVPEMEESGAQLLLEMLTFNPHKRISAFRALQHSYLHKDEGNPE
Sequence of CDK4/cyclin D1 (P24385 whole entry partner, species assumed): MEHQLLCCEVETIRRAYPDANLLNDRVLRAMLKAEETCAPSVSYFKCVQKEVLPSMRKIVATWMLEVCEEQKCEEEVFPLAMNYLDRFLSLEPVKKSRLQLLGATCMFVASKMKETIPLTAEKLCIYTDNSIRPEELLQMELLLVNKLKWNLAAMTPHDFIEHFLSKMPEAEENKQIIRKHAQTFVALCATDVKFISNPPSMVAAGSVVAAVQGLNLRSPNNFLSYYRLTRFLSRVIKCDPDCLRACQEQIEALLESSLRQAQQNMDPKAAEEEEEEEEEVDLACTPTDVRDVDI

For `N#Cc1cccc(-c2ccnc(Nc3ccc(O)cc3)n2)c1` [Compound 93, 3-[2-(4-Hydroxy-phenylamino)-pyrimidin-4-yl]-benzonitrile], the IC50 on CDK1/cyclin B was found to be 3100 nM; at Aurora-A it was 1000 nM; on CDK4/cyclin D1 it was 2500 nM.

On to `CN(C)Cc1cccc(-c2ccnc(Nc3cccc(O)c3)n2)c1` [Compound 80, 3-[4-(3-Dimethylaminomethyl-phenyl)-pyrimidin-2-ylamino]-phenol], for which the IC50 amounted to 4000 nM with Saos-2; 70 nM on CDK2/cyclin E; 830 nM on GSK3β; 690 nM at CDK1/cyclin B; 10 nM on CDK9/cyclin T1; 1600 nM in the experiment with HT29. Also, the IC50 in experiment [1] was 2200 ± 1600 nM; on Aurora-A it was 1500 nM; at CDK7/cyclin H it was 720 nM; in the experiment with A549 it was 860 nM; on CDK2/cyclin A, 590 nM.

Take `COc1ccc(Nc2nccc(-c3cccc(CN(C)C)c3)n2)cn1` [Compound 83, [4-(3-Dimethylaminomethyl-phenyl)-pyrimidin-2-yl]-(6-methoxy-pyridin-3-yl)-amine]: the IC50 in the experiment with Saos-2 amounted to 1600 nM; at CDK2/cyclin E, 190 nM; at GSK3β, 150 nM; at CDK1/cyclin B it was 380 nM; on CDK9/cyclin T1, 20 nM; in the experiment with HT29, 910 nM. The IC50 came to 1300 ± 400 nM in experiment [1]; 7800 nM on Aurora-A; 990 nM on CDK7/cyclin H; 1400 nM in the experiment on A549; 650 nM at CDK2/cyclin A.

On to `O=[N+]([O-])c1cccc(Nc2nccc(-c3cccc(CN4CCCC(CO)C4)c3)n2)c1` (centres unmarked) [Compound 105, (1-{3-[2-(3-Nitro-phenylamino)-pyrimidin-4-yl]-benzyl}-piperidin-3-yl)-methanol], for which the IC50 on CDK2/cyclin E worked out at 70 nM; on GSK3β, 10 nM; on CDK1/cyclin B it was 1200 nM; at CDK9/cyclin T1 it was 10 nM; at Aurora-A, 2600 nM; on CDK4/cyclin D1, 1900 nM. The IC50 at CDK7/cyclin H amounted to 80 nM; at CDK2/cyclin A, 350 nM.

Consider `CCN(CC)Cc1cccc(-c2ccnc(Nc3cccc([N+](=O)[O-])c3)n2)c1` [Compound 84, [4-(3-Diethylaminomethyl-phenyl)-pyrimidin-2-yl]-(3-nitro-phenyl)-amine], for which the IC50 on CDK2/cyclin E turned out to be 60 nM; at GSK3β, 20 nM; on CDK1/cyclin B, 20 nM; at CDK9/cyclin T1, 4 nM; on Aurora-A, 570 nM; on CDK4/cyclin D1, 3200 nM. In addition, the IC50 at CDK7/cyclin H was found to be 90 nM; at CDK2/cyclin A, 20 nM.

Consider `CN(c1cccc(-c2ccnc(Nc3ccc(O)cc3)n2)c1)S(C)(=O)=O` [Compound 131, N-{3-[2-(4-Hydroxy-phenylamino)-pyrimidin-4-yl]-phenyl}-N-methyl-methanesulfonamide], for which the IC50 was 180 nM on CDK2/cyclin E; 130 nM on GSK3β; 2100 nM on CDK1/cyclin B; 10 nM on CDK9/cyclin T1; 140 nM on Aurora-A; 2500 nM at CDK4/cyclin D1. For the same compound, the figures for the IC50 at CDK7/cyclin H and on CDK2/cyclin A were 1400 nM and 450 nM, respectively.

With `CN(C)Cc1cccc(-c2ccnc(Nc3ccc(O)cc3)n2)c1` [Compound 81, 4-[4-(3-Dimethylaminomethyl-phenyl)-pyrimidin-2-ylamino]-phenol], the IC50 worked out at 5000 nM with Saos-2; 110 nM on CDK2/cyclin E; 1300 nM on GSK3β; 1300 nM on CDK1/cyclin B; 20 nM at CDK9/cyclin T1; 1200 nM in the experiment on HT29. Moreover, the IC50 stood at 2600 ± 2100 nM in experiment [1]; 1000 nM on Aurora-A; 1400 nM on CDK7/cyclin H; 1500 nM in the experiment with A549; 500 nM on CDK2/cyclin A.

`CN(c1cccc(-c2ccnc(Nc3cccc([N+](=O)[O-])c3)n2)c1)S(C)(=O)=O` [Compound 129, N-Methyl-N-{3-[2-(3-nitro-phenylamino)-pyrimidin-4-yl]-phenyl}-methanesulfonamide]: the IC50 on CDK2/cyclin E was found to be 70 nM; on GSK3β it was 130 nM; on CDK1/cyclin B, 830 nM; on CDK9/cyclin T1, 20 nM; at Aurora-A it was 270 nM; at CDK4/cyclin D1, 2600 nM. The IC50 turned out to be 650 nM on CDK7/cyclin H and 440 nM at CDK2/cyclin A.

Turning to `COc1ccc(-c2ccnc(Nc3ccc(O)cc3)n2)cc1` [Compound 110, 4-[4-(4-Methoxy-phenyl)-pyrimidin-2-ylamino]-phenol], the IC50 stood at 120 nM at CDK2/cyclin E; 500 nM on CDK1/cyclin B; 20 nM on CDK9/cyclin T1; 400 nM at Aurora-A; 1300 nM at CDK4/cyclin D1; 1500 nM on CDK7/cyclin H. In addition, the IC50 at CDK2/cyclin A came to 80 nM.

With `OCc1cccc(Nc2nccc(-c3cccc(O)c3)n2)c1` [Compound 72, 3-[2-(3-Hydroxymethyl-phenylamino)-pyrimidin-4-yl]-phenol], the IC50 on CDK2/cyclin E was determined as 120 nM; at GSK3β it was 30 nM; at CDK1/cyclin B, 150 nM; at Aurora-A, 40 nM; on CDK4/cyclin D1, 280 nM; on CDK7/cyclin H, 1700 nM. For the same compound, the IC50 on CDK2/cyclin A turned out to be 150 nM.

With `N#Cc1cccc(-c2ccnc(Nc3cccc(O)c3)n2)c1` [Compound 92, 3-[2-(3-Hydroxy-phenylamino)-pyrimidin-4-yl]-benzonitrile], the IC50 at GSK3β amounted to 80 nM; on CDK1/cyclin B it was 2100 nM; on CDK9/cyclin T1, 110 nM; on Aurora-A it was 940 nM; on CDK4/cyclin D1 it was 1400 nM.

In the case of `COc1cccc(-c2ccnc(Nc3cccc(O)c3)n2)c1` [Compound 88, 3-[4-(3-Methoxy-phenyl)-pyrimidin-2-ylamino]-phenol], the IC50 is 100 nM at CDK2/cyclin E; 80 nM on GSK3β; 570 nM on CDK1/cyclin B; 5 nM at CDK9/cyclin T1; 20 nM at Aurora-A; 200 nM on CDK4/cyclin D1. For the same compound, the IC50 on CDK2/cyclin A was 1400 nM.

`COc1cccc(-c2ccnc(Nc3ccc(O)cc3)n2)c1` [Compound 98, 4-[4-(3-Methoxy-phenyl)-pyrimidin-2-ylamino]-phenol]: the IC50 was determined as 130 nM at CDK2/cyclin E; 350 nM at GSK3β; 1100 nM at CDK1/cyclin B; 6 nM on CDK9/cyclin T1; 640 nM at Aurora-A; 590 nM at CDK4/cyclin D1. The IC50 at CDK2/cyclin A was 1400 nM.
